The text below walks through data of patent US10822337B2, “TGF-β inhibitorC” (Rigel Pharmaceuticals, Inc., priority 2015, dated 2020).

For experiment [1], the system named is TGF-β signaling (TGF-β pSMAD, MPC-11). Nature of the experiment: AlphaScreen SureFire SMAD3 (p-Ser423/425) assay, inhibition of TGF-β signaling. In kind it is cell-based. The settings on record: Mus musculus, p-SMAD-3 (Ser423/425) in cell lysate after TGF-β stimulation. The source says: (§1) Example 2: AlphaScreen® SureFire® SMAD3 (p-Ser423/425) Assay
(§2) The p-SMAD-3 (Ser423/425) SureFire® assay has been designed to measure the phosphorylation of endogenous cellular p-SMAD-3 (Ser423/425) in cell lysates and is a system for the screening of both modulators of receptor activation (e.g. agonists and antagonists) as well as agents acting intracellularly, such as small molecule inhibitors of upstream events. The assay will measure p-SMAD-3 (Ser423/425) activation by either cloned or endogenous receptors, and can be applied to primary cells.
(§3) 1× Lysis buffer: 1 ml of 5× Lysis buffer was diluted with 4 ml of sterile water. After dilution, excess 1× Lysis buffer can be frozen and thawed up to 5 times without loss in activity.
(§4) P-SMAD-3 (Ser423/425) SureFire® Assay Protocols
(§5) Step A: Preparation of Buffers
(§6) Activation buffer: The buffer was warmed slowly to 37° C. and gently mixed to re-suspend. Activation buffer can be stored at room temperature with no loss in activity.
(§7) Reaction buffer: The buffer was kept at 4° C. while in use.
(§8) AlphaScreen® Protein A IgG Kit: The kit was stored at 4° C. in the dark.
(§9) Reaction buffer+Activation buffer+AlphaScreen® Acceptor beads: Reaction buffer (40 parts), Activation Buffer (10 parts) and Acceptor beads (1 part) were mixed and the mixture was stored at room temperature and used the same day. Mixture was added to 384-well plates; excess mixturewas discarded.
(§10) Dilution buffer+AlphaScreen® Donor beads: Dilution buffer (20 parts) and Donor beads (1 part) were mixed and the mixture was stored at room temperature and used the same day. Excess mixture was discarded.
(§11) Assay control samples: After reconstitution in 250 μl of water, lysates were at −20° C. in single use aliquots.
(§12) Step B: Preparation of Samples and Cells
(§13) 96-well Assay Protocol for 293FT and RMS13 adherent cells can be carried out manually or in high throughput with liquid handling robots.
(§14) The cells (80 μL of cells for 96 well plates) were plated in collagen coated tissue culture plates in RPMI or FreeStyle medium (Invitrogen) and incubated overnight. For manual analysis, 6 plates for GDF8, 6 plates for TGFβ, and optionally 6 plates for Alk5ca(ALKS constitutively active) were used.
(§15) The compound dilution plates were prepared as follows: 12 μL of DMSO was transferred into first column of 96-well plate, and 16 μL of DMSO was transferred into columns 2-12 of the 96-well plate. 12 μL of compound solution was transferred into first column of the DMSO-containing 96-well plate. Three-fold dilution was performed up to column 10 of the DMSO-containing 96-well plate.
(§16) Step C: Treatment and Analysis
(§17) The plate containing cells were treated with compounds for about 10 minutes, and then ligand was added. GDF8 or TGFb was added to plates to stimulate. 293FL cells were stimulatedfor 90 minutes at 37° C.; and RMS13 cells were stimulated for 60 minutes at 37° C. The medium was then removed from the cells, and 1× Lysis Buffer (about 25 μL) was added and the plate was gently agitated on plate shaker for 5-10 minutes.
(§18) The lysate (5 μL) was then placed into 384-well shallow plates avoiding the generation of bubbles. To this, the Reaction Buffer+Activation Buffer+AlphaScreen® Acceptor beadsmixture (5 μL) was added. The plate was sealed with adhesive cover and shielded from light (e.g., with metal foil), and agitated gently on plate shaker for 2 hours at room temperature.
(§19) Dilution buffer+AlphaScreen® Donor beads (2 μL) was then added, and the plate was intubated on the plate shaker for an additional 1½ hours. After completion, the plate was read on Synergy-4 or Enspire plate reader, using AlphaScreen® pSMAD3® settings.
(§20) Representative results for inhibition of GDF8 (data=GDF pSMAD (MPC11) (μM)) and TGF-β (data=TGF-β pSMAD (MPC-11) (μM)) signaling are shown in Table 1: […]
On the technique in general: Bead proximity is the source of the signal in Alpha formats.

In experiment [2] the test system is GDF8 signaling (GDF pSMAD, MPC11). Description: AlphaScreen SureFire SMAD3 (p-Ser423/425) assay, inhibition of GDF8 signaling. To be noted: Mus musculus, MPC-11, p-SMAD-3 (Ser423/425) in cell lysate after GDF8 stimulation. In kind it is cell-based.
Text: as §1, §2, §3, §4, §5, §6, §7, §8, §9, §10, §11, §12, §13, §14, §15, §16, §17, §18, §19, §20

By IC50 is commonly meant the point on the concentration scale where inhibition reaches its midpoint. As to `COc1cccc(-c2nn3c(c2-c2ccc4cn[nH]c4c2)CCC3)c1` [Compound 28, 6-(2-(3-Methoxyphenyl)-5,6-dihydro-4H-pyrrolo[1,2-b]pyrazol-3-yl)-1H-indazole], the IC50 turned out to be 0.242 µM in experiment [1] and 0.0802 µM in experiment [2].
`COc1cccc(-c2nn3c(c2-c2ccc4ncn(C)c4c2)CCC3)c1` [Compound 29, 6-(2-(3-Methoxyphenyl)-5,6-dihydro-4H-pyrrolo[1,2-b]pyrazol-3-yl)-1-methyl-1H-benzo[d]imidazole]: the IC50 came out at 0.264 µM in experiment [1] and 0.106 µM in experiment [2].
For `COc1cccc(-c2nn3c(c2-c2ccc4ncsc4c2)CCC3)c1` [Compound 30, 6-(2-(3-Methoxyphenyl)-5,6-dihydro-4H-pyrrolo[1,2-b]pyrazol-3-yl)benzo[d]thiazole], in that order: 0.264 µM and 0.0486 µM.
For `FC(F)(F)c1cccc(-c2nn3c(c2-c2ccc4[nH]ncc4c2)CCC3)c1` [Compound 31, 5-(2-(3-Trifluoromethylphenyl)-5,6-dihydro-4H-pyrrolo[1,2-b]pyrazol-3-yl)-1H-indazole], in that order: 0.171 µM and 0.051 µM.
As for `FC(F)(F)c1cccc(-c2nn3c(c2-c2ccc4cn[nH]c4c2)CCC3)c1` [Compound 32, 6-(2-(3-Trifluoromethylphenyl)-5,6-dihydro-4H-pyrrolo[1,2-b]pyrazol-3-yl)-1H-indazole], the IC50 in experiment [1] was determined as 0.292 µM; in experiment [2] it was 0.0451 µM.
For the compound `Cn1cnc2ccc(-c3c(-c4cccc(C(F)(F)F)c4)nn4c3CCC4)cc21` [Compound 33, 1-Methyl-6-(2-(3-trifluoromethylphenyl)-5,6-dihydro-4H-pyrrolo[1,2-b]pyrazol-3-yl)-1H-benzo[d]imidazole], the values for the IC50 in experiment [1] and in experiment [2] were 0.0421 µM and 0.0212 µM, respectively.
For the compound `FC(F)(F)c1cccc(-c2nn3c(c2-c2ccc4nccn4c2)CCC3)c1` [Compound 34, 6-(2-(3-Trifluoromethylphenyl)-5,6-dihydro-4H-pyrrolo[1,2-b]pyrazol-3-yl)imidazo[1,2-a]pyridine], the IC50 in experiment [1] is 0.0348 µM; in experiment [2] it was 0.0083 µM.
With `FC(F)(F)c1cccc(-c2nn3c(c2-c2ccc4ncsc4c2)CCC3)c1` [Compound 35, 6-(2-(3-Trifluoromethylphenyl)-5,6-dihydro-4H-pyrrolo[1,2-b]pyrazol-3-yl)benzo[d]thiazole], the IC50 was determined as 0.35 µM in experiment [1] and 0.0979 µM in experiment [2].
On the same counts, the results for `Cc1cccc(-c2nn3c(c2-c2ccc4[nH]ncc4c2)OCC3)c1` [Compound 36, 7-(1H-Indazol-5-yl)-6-(m-tolyl)-2,3-dihydropyrazolo[5,1-b]oxazole] are 0.526 µM and 0.104 µM.
With `Cc1cccc(-c2nn3c(c2-c2ccc4cn[nH]c4c2)OCC3)c1` [Compound 37, 7-(1H-indazol-6-yl)-6-(m-tolyl)-2,3-dihydropyrazolo[5,1-b]oxazole], the IC50 in experiment [1] came to 0.193 µM; in experiment [2], 0.0365 µM.
As for `Cc1cccc(-c2nn3c(c2-c2ccc4ncn(C)c4c2)OCC3)c1` [Compound 38, 7-(1-Methyl-1H-benzo[d]imidazol-6-yl)-6-(m-tolyl)-2,3-dihydropyrazolo[5,1-b]oxazole], the IC50 turned out to be 0.0579 µM in experiment [1] and 0.0226 µM in experiment [2].
For the compound `Cc1cccc(-c2nn3c(c2-c2ccc4ncsc4c2)OCC3)c1` [Compound 39], the IC50 is 0.175 µM in experiment [1] and 0.0596 µM in experiment [2].
On to `Cc1cccc(-c2nn3c(c2-c2ccc4[nH]ncc4c2)OCCC3)c1` [Compound 40, 3-(1H-Indazol-5-yl)-2-(m-tolyl)-6,7-dihydro-5H-pyrazolo[5,1-b][1,3]oxazine], for which the IC50 came out at 2.45 µM in experiment [1] and 0.657 µM in experiment [2].
On to `Cc1cccc(-c2nn3c(c2-c2ccc4ncn(C)c4c2)OCCC3)c1` [Compound 41, 3-(1-Methyl-1H-benzo[d]imidazol-6-yl)-2-(m-tolyl)-6,7-dihydro-5H-pyrazolo[5,1-b][1,3]oxazine], for which the values for the IC50 in experiment [1] and in experiment [2] were 0.188 µM and 0.0808 µM, respectively.
On to `Cc1cccc(-c2nn3c(c2-c2ccc4nccn4c2)OCCC3)c1` [Compound 42, 3-(Imidazo[1,2-a]pyridin-6-yl)-2-(m-tolyl)-6,7-dihydro-5H-pyrazolo[5,1-b][1,3]oxazine], for which the results for the IC50 in experiment [1] and in experiment [2] were 0.331 µM and 0.112 µM, respectively.
On the same counts, the results for `Cc1cccc(-c2nn3c(c2-c2ccc4ncsc4c2)OCCC3)c1` [Compound 43, 3-(benzo[d]thiazol-6-yl)-2-(m-tolyl)-6,7-dihydro-5H-pyrazolo[5,1-b][1,3]oxazine] are 0.501 µM and 0.147 µM.
`Cc1cccc(-c2nn3c(c2-c2ccc4nccn4c2)OCC3)c1` [Compound 44, 7-(imidazo[1,2-a]pyridin-6-yl)-6-(m-tolyl)-2,3-dihydropyrazolo[5,1-b]oxazole]: the IC50 in experiment [1] was found to be 0.105 µM; in experiment [2], 0.0233 µM.
On to `Fc1ccc(-c2nn3c(c2-c2ccc4ncccc4c2)CCC3)cc1` [Compound 45, 6-(2-(4-Fluorophenyl)-5,6-dihydro-4H-pyrrolo[1,2-b]pyrazol-3-yl)quinoline], for which the IC50 in experiment [1] stood at 12.6 µM; in experiment [2], 1.08 µM.
With `Cc1cccc(-c2nn3c(c2-c2ccc4ncccc4c2)CCC3)c1` [Compound 46, 6-(2-(m-Tolyl)-5,6-dihydro-4H-pyrrolo[1,2-b]pyrazol-3-yl)quinoline], the IC50 was 1.51 µM in experiment [1] and 0.234 µM in experiment [2].
Turning to `Cc1cc(-c2nn3c(c2-c2ccc4ncccc4c2)CCC3)ccc1F` [Compound 47, 6-(2-(4-Fluoro-3-methylphenyl)-5,6-dihydro-4H-pyrrolo[1,2-b]pyrazol-3-yl)quinoline], the IC50 came out at 2.52 µM in experiment [1] and 0.335 µM in experiment [2].
Take `COc1cccc(-c2nn3c(c2-c2ccc4ncccc4c2)CCC3)c1` [Compound 48, 6-(2-(3-Methoxyphenyl)-5,6-dihydro-4H-pyrrolo[1,2-b]pyrazol-3-yl)quinoline]: the half-maximal inhibitory concentration (IC50) in experiment [1] turned out to be 4.46 µM; in experiment [2], 0.61 µM.
In the case of `Clc1cccc(-c2nn3c(c2-c2ccc4ncccc4c2)CCC3)c1` [Compound 49, 6-(2-(3-Chlorophenyl)-5,6-dihydro-4H-pyrrolo[1,2-b]pyrazol-3-yl)quinoline], the IC50 was 0.926 µM in experiment [1] and 0.129 µM in experiment [2].
For `FC(F)(F)c1cccc(-c2nn3c(c2-c2ccc4ncccc4c2)CCC3)c1` [Compound 50, 6-(2-(3-Trifluoromethylphenyl)-5,6-dihydro-4H-pyrrolo[1,2-b]pyrazol-3-yl)quinoline], in that order: 4.19 µM and 0.473 µM.
In the case of `Cc1cccc(-c2nn3c(c2-c2ccc4ncccc4c2)OCC3)c1` [Compound 51, 7-(Quinolin-6-yl)-6-(m-tolyl)-2,3-dihydropyrazolo[5,1-b]oxazole], the IC50 in experiment [1] came to 2.95 µM; in experiment [2] it was 0.373 µM.
In the case of `Cc1cccc(-c2nn3c(c2-c2ccc4nccnc4c2)OCC3)c1` [Compound 52, 7-(Quinoxalin-6-yl)-6-(m-tolyl)-2,3-dihydropyrazolo[5,1-b]oxazole], the IC50 in experiment [1] is 0.203 µM; in experiment [2], 0.0477 µM.
For the compound `Fc1ccc(-c2nn3c(c2-c2ccc4nccnc4c2)CCC3)cc1` [Compound 53, 6-(2-(4-Fluorophenyl)-5,6-dihydro-4H-pyrrolo[1,2-b]pyrazol-3-yl)quinoxaline], the IC50 was 2.34 µM in experiment [1] and 0.395 µM in experiment [2].
As for `Cc1cccc(-c2nn3c(c2-c2ccc4nccnc4c2)CCC3)c1` [Compound 54, 6-(2-(m-Tolyl)-5,6-dihydro-4H-pyrrolo[1,2-b]pyrazol-3-yl)quinoxaline], the IC50 in experiment [1] is 0.204 µM; in experiment [2], 0.0602 µM.
